The text below walks through data of patent publication US20210040073A1, “AZABICYCLO-SUBSTITUTED TRIAZOLE DERIVATIVE, PREPARATION METHOD THEREOF, AND APPLICATION OF SAME IN MEDICINE” (Jiangsu Hengrui Medicine Co., Ltd., priority 2016, published 2021).

In data set [1] the target is T1, human V1aR (Homo sapiens, UniProt P37288).
T1 construct: expressed in transfected cells
Put plainly: Inhibition activity on human V1aR (Fluo-4 calcium assay, HEK293/human V1aR stably transfected cells, vasopressin 3 nM). It is filed as cell-based. As to conditions: calcium signal. As to the method: The inhibition effect of the compounds of the present invention on the activity of human V1aR protein expressed in HEK293/human V1aR stably transfected cells was determined by the following experimental method:
The pcDNA3.1-V1aR plasmid was transferred into HEK293 cells with the Lipofectamine® 3000 transfection reagent; G418 was added on the next day to screen, and monoclonal cell lines were selected.
(§1) HEK293/human V1aR stably transfected cells were inoculated in a 96-well plate with an inoculation density of 25,000 cells/well one day in advance. On the next day, a loading buffer containing Fluo-4 dye was formulated using the reagents in the Fluo-4 NW calcium assay kit, and the culture medium was then removed; 100 μl of the loading buffer containing Fluo-4 dye were added to each well, and the plate was incubated at 37° C. for 30 minutes. After that, the plate was moved to room temperature and equilibrated for 10 minutes. The compounds were formulated into concentration gradients of 10^6, 10^5, 10^4, 10^3, 10^2 and 10^1 nM. 1 μl of the compounds in each concentration was added to each well, and the plate was incubated at room temperature for 10 minutes. […] IC50 values of the compounds were calculated by Graphpad prism software using fluorescence signals corresponding to different concentrations.
The inhibition activity of the compounds of the present invention on human V1aR was determined by the above test, and the obtained IC50 values are shown in Table 2.

Data set [2] has as its target T2, human V1bR (Homo sapiens, UniProt P47901).
T2 construct: expressed in transfected cells; host or cells: HEK293 (G418-selected pool)
T2 sequence (P47901 1-424): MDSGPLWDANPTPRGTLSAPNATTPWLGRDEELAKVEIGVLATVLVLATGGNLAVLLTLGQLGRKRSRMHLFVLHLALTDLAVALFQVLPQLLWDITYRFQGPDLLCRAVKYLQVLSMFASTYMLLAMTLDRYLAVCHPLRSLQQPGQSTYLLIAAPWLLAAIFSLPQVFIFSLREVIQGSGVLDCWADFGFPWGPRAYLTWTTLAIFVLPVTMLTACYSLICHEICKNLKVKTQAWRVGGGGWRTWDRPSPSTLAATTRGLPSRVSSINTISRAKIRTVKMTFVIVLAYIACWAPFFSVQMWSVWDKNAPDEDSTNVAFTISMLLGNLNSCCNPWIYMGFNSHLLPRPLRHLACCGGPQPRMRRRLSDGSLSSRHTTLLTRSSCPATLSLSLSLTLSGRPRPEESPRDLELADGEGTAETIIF
The experiment in a line: Inhibition activity on human V1bR (Fluo-4 calcium assay, HEK293/human V1bR pool cells, vasopressin 3 nM). As to conditions: calcium signal. The format is cell-based. As to the method:
The inhibition effect of the compounds of the present invention on the activity of human V1bR protein expressed in HEK293/human V1bR cells was determined by the following experimental method:
The pcDNA3.1-V1bR plasmid was transferred into HEK293 cells with the Lipofectamine® 3000 transfection reagent; G418 was added on the next day, and the HEK293/human V1bR pool cell lines were obtained.
as §1, with “V1bR pool” for “V1aR stably transfected”

Data set [3] concerns the target T3, human V2R (Homo sapiens, UniProt P30518).
T3 construct: expressed in transfected cells; host or cells: HEK293 (G418-selected pool)
Put plainly: Inhibition activity on human V2R (cAMP HTRF assay, HEK293/human V2R pool cells, vasopressin). It is filed as cell-based. The procedure: The inhibition effect of the compounds of the present invention on the activity of human V2R protein expressed in HEK293/human V2R cells was determined by the following experimental method:
The pcDNA3.1-V2R plasmid was transferred into HEK293 cells with the Lipofectamine® 3000 transfection reagent; G418 was added on the next day, and the HEK293/human V2R pool cell lines were obtained.
HEK293/human V2R pool cells were digested with the cell dissociation solution (enzyme-free), thereby dissociating the cells from the cell culture dish into individual cells. After completion, the cell solution was blown well, and centrifuged to remove the supernatant. The cells were re-suspended in the test buffer 1 (1×HBSS+20 mM HEPES+0.1% BSA) and counted. The cell density was adjusted to 1250 cells/5 μl, i.e., 2.5*10^5/ml.
The compounds were formulated into a series of concentrations of 20 mM, 6.67 mM, 2.22 mM, 0.74 mM, 0.25 mM, 0.08 mM, 27.4 μM, 9.14 μM, 3.05 μM, 1.02 μM, 0.34 μM and 0 μM (DMSO) with pure DMSO. The compounds were then formulated into a 4-fold use concentration with the test buffer 2 (test buffer 1+1 mM IBMX).
Agonist: 460 μM vasopressin was used as the mother liquor, formulated as a 2 μM solution with DMSO, which was then diluted to a 0.5 nM solution with the test buffer 2.
Standard: The first point was 20 μl of a stock solution (2848 nM), which was diluted successively to a total of eleven concentrations in a 4-fold concentration gradient with the test buffer 1 from the second point.
1. The well-mixed cells were added to a 384-well plate (5 μl/well) without changing the tip.
2. The test compounds and positive compound formulated were added (2.5 μl/well), and the tips were changed.
3. The plate was centrifuged at 1000 rpm for 1 min, shaken for 30 sec to mix well, and incubated at room temperature for 30 min.
4. The standard curve wells were added with the test buffer 2 (5 μl/well).
5. The agonist formulated was added (2.5 μl/well), and the tips were changed; the plate was centrifuged at 1000 rpm for 1 min, shaken for 30 sec to mix well, and incubated at room temperature for 30 min.
6. cAMP-d2 (a component in the cAMP dynamic 2 kit) and Anti-cAMP-Eu-Cryptate (a component in the cAMP dynamic 2 kit) were formulated in the dark, which were then mixed well with cAMP lysate (a component in the cAMP dynamic 2 kit) in a ratio of 1:4. Each well was added with the formulated cAMP-d2 solution (5 μl/well), followed by addition of Anti-cAMP-Eu-Cryptate (5 μl/well). The plate was shaken for 30 sec to mix well, and incubated in the dark at room temperature for 1 h.
4) Plate reading: The HTRF signals were read by the PheraStar multi-function microplate reader.
The data in this test was processed using the data processing software Graphpad Prism.
The inhibition activity of the compounds of the present invention on human V2R was determined by the above test, and the obtained IC50 values are shown in Table 4.

Data set [4] deals with T4, human OTR (Homo sapiens, UniProt P30559).
T4 construct: expressed in transfected cells
T4 sequence (P30559 1-389): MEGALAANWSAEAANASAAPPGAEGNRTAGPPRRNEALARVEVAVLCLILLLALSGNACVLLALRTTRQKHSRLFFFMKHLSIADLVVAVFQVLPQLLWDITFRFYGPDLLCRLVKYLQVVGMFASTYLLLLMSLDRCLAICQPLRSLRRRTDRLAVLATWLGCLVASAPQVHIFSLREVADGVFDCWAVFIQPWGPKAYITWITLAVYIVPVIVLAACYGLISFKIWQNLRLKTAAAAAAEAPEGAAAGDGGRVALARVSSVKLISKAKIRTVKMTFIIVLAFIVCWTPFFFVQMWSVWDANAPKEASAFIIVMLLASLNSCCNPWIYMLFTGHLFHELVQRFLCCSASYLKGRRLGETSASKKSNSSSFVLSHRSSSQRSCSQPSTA
Put plainly: Inhibition activity on human OTR (Fluo-4 calcium assay, HEK293/human OTR stably transfected cells, oxytocin 3 nM). The format is cell-based. The settings on record: calcium signal. As to the method: The inhibition effect of the compounds of the present invention on the activity of human OTR protein expressed in HEK293/human OTR stably transfected cells was determined by the following experimental method:
The pcDNA3.1-hOTR plasmid was transferred into HEK293 cells with the Lipofectamine® 3000 transfection reagent; G418 was added on the next day to screen, and monoclonal cell lines were selected.
HEK293/human OTR stably transfected cells were inoculated in a 96-well plate with an inoculation density of 25,000 cells/well one day in advance. On the next day, a loading buffer containing Fluo-4 dye was formulated using the reagents in the Fluo-4 NW calcium assay kit, and the culture medium was then removed; 100 μl of the loading buffer containing Fluo-4 dye were added to each well, and the plate was incubated at 37° C. for 30 minutes. After that, the plate was moved to room temperature and equilibrated for 10 minutes. The compounds were formulated into concentration gradients of 10^6, 10^5, 10^4, 10^3, 10^2 and 10^1 nM. 1 μl of the compounds in each concentration was added to each well, and the plate was incubated at room temperature for 10 minutes. 50 μl of oxytocin polypeptide (3 nM) were automatically added by the machine, and the values were immediately detected at 494/516 nM by the flexstation 3 microplate reader. IC50 values of the compounds were calculated by Graphpad prism software using fluorescence signals corresponding to different concentrations.
The inhibition activity of the compounds of the present invention on human OTR was determined by the above test, and the obtained IC50 values are shown in Table 1.

Data set [5] is described as follows: Pharmacokinetics assay in rats after intragastrical administration. The settings on record: both, Sprague-Dawley, rat, plasma, po, 2 mg/kg.
Description: Rats were used as test animals. […] The pharmacokinetic behavior of the compounds of the present invention was studied and evaluated in rats.
After an overnight fast, SD rats were administered intragastrically the test compounds at an administration dosage of 2.0 mg/kg and an administration volume of 10.0 mL/kg.
0.2 mL of blood was taken from the orbital sinus before administration and at 0.5, 1.0, 2.0, 4.0, 6.0, 8.0, 11.0 and 24.0 hours after administration. The samples were stored in heparinized tubes, and centrifuged for 10 minutes at 4° C. at 3,500 rpm to separate the blood plasma. The plasma samples were stored at −20° C. The rats were fed 2 hours after administration.
The content of the test compounds in the plasma of rats after intragastrical administration of the test compounds at different concentrations was determined: 25 μL of rat plasma at each time after administration was taken, added with 50 μL of the internal standard solution of camptothecin (100 ng/mL) and 200 μL of acetonitrile, vortex-mixed for 5 minutes, and centrifuged for 10 minutes (4000 rpm). 1.0 μL of the supernatant was taken from the plasma samples for LC/MS/MS analysis.

T1 sequence (P37288 whole entry): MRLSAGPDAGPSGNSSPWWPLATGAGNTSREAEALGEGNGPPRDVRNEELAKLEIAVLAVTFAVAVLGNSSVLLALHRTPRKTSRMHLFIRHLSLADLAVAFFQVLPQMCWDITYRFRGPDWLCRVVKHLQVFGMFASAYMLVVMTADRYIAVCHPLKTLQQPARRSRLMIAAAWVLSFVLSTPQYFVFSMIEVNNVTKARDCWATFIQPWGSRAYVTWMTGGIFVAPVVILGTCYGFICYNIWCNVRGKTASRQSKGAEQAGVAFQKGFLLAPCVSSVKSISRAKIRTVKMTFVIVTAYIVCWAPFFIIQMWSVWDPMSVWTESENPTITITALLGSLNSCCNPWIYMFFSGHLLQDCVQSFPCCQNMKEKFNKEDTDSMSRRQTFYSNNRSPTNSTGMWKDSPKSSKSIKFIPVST
T3 sequence (P30518 whole entry): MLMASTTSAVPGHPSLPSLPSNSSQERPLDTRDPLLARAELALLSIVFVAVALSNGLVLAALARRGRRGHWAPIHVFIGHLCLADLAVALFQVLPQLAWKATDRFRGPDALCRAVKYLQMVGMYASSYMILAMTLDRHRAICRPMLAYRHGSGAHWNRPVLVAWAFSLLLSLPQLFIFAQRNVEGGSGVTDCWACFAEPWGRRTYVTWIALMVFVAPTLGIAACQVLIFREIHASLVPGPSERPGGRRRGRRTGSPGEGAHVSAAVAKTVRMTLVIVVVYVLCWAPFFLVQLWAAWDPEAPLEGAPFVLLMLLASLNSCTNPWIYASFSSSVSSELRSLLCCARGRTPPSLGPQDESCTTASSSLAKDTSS

Consider `COc1ccc(-n2c(COC3CCOCC3)nnc2N2C[C@@H]3C[C@]3(c3ccc(F)cc3Cl)C2)cn1` [Example 2, (1S,5R)-1-(2-Chloro-4-fluorophenyl)-3-(4-(6-methoxypyridin-3-yl)-5-(((tetrahydro-2H-pyran-4-yl)oxy)methyl)-4H-1,2,4-triazol-3-yl)-3-azabicyclo[3.1.0]hexane], for which the IC50 in data set [1] stood at 4.7 µM.

On to `COc1ccc(-n2c(CO[C@H]3CCOC3)nnc2N2C[C@@H]3C[C@]3(c3ccc(F)cc3Cl)C2)cn1` [Example 3, (1S,5R)-1-(2-Chloro-4-fluorophenyl)-3-(4-(6-methoxypyridin-3-yl)-5-((((S)-tetrahydrofuran-3-yl)oxy)methyl)-4H-1,2,4-triazol-3-yl)-3-azabicyclo[3.1.0]hexane], for which the IC50 in data set [1] turned out to be 7.5 µM; in data set [2] it was 56.7 µM; in data set [3] it was 23 µM.

In the case of `COCc1nnc(N2C[C@@H]3C[C@]3(c3ccc(F)cc3Cl)C2)n1-c1ccc2c(c1)OCO2` [Example 5, (1S,5R)-3-(4-(Benzo[d][1,3]dioxol-5-yl)-5-(methoxymethyl)-4H-1,2,4-triazol-3-yl)-1-(2-chloro-4-fluorophenyl)-3-azabicyclo[3.1.0]hexane], the IC50 amounted to 0.131 µM in data set [4] and 1 µM in data set [1].

With `COCc1nnc(N2CC3CC3(c3ccc(F)cc3Cl)C2)n1-c1ccc(OC)nc1` (stereo not drawn) [Example 8, 1-(2-Chloro-4-fluorophenyl)-3-(5-(methoxymethyl)-4-(6-methoxypyridin-3-yl)-4H-1,2,4-triazol-3-yl)-3-azabicyclo[3.1.0]hexane], the 50% inhibitory concentration (IC50) in data set [4] came to 0.023 µM. Moreover, the IC50 in data set [1] turned out to be 3 µM. Further, the IC50 in data set [2] worked out at 43.3 µM. In data set [5], this molecule returned an AUC of 1980 ± 1020 ng·h/mL, a CL/F of 23.3 ± 18 mL/min/kg, a Cmax of 635 ± 273 ng/mL and an MRT of 2.18 ± 0.24 h. For the same molecule, in data set [5], the Vd/F is 1.94 ± 0.983 L/kg and the half-life was 1.08 ± 0.21 h.

On to `COCc1nnc(N2C[C@H]3C[C@@]3(c3ccc(F)cc3Cl)C2)n1-c1ccc(OC)nc1` [Example 10, (1R,5S)-1-(2-Chloro-4-fluorophenyl)-3-(5-(methoxymethyl)-4-(6-methoxypyridin-3-yl)-4H-1,2,4-triazol-3-yl)-3-azabicyclo[3.1.0]hexane], for which the IC50 in data set [4] was determined as 0.624 µM.

Regarding `COc1ccc(-n2c(COC(F)F)nnc2N2C[C@@H]3C[C@]3(c3ccc(F)cc3Cl)C2)cn1` [Example 11, (1S,5R)-1-(2-Chloro-4-fluorophenyl)-3-(5-((difluoromethoxy)methyl)-4-(6-methoxypyridin-3-yl)-4H-1,2,4-triazol-3-yl)-3-azabicyclo[3.1.0]hexane], the IC50 in data set [4] was found to be 0.001 µM. The concentration for half-maximal inhibition (IC50) in data set [2] stood at 7.8 µM. Further, in data set [3], the IC50 worked out at 6.8 µM. In data set [5], the AUC worked out at 3980 ± 2970 ng·h/mL, the CL/F worked out at 12.6 ± 8.03 mL/min/kg, the concentration peaked (Cmax) at 405 ± 110 ng/mL and the MRT is 5.82 ± 2.73 h. In data set [5], the Vd/F is 2.46 ± 0.706 L/kg and the half-life is 2.86 ± 1.27 h.

Regarding `COc1ccc(-n2c(C(F)F)nnc2N2C[C@@H]3C[C@]3(c3ccc(F)cc3Cl)C2)cn1` [Example 13, (1S,5R)-1-(2-Chloro-4-fluorophenyl)-3-(5-(difluoromethyl)-4-(6-methoxypyridin-3-yl)-4H-1,2,4-triazol-3-yl)-3-azabicyclo[3.1.0]hexane], the IC50 in data set [4] was 0.052 µM; in data set [1], 1.9 µM.

`[2H]C([2H])([2H])OCc1nnc(N2C[C@@H]3C[C@]3(c3ccc(F)cc3Cl)C2)n1-c1ccc(OC)nc1` [Example 14, (1S,5R)-1-(2-Chloro-4-fluorophenyl)-3-(5-((methoxy-d3)methyl)-4-(6-methoxypyridin-3-yl)-4H-1,2,4-triazol-3-yl)-3-azabicyclo[3.1.0]hexane]: the values for the IC50 in data set [4], in data set [2] and in data set [3] were 0.068 µM, 20.5 µM and 10.4 µM, respectively.

For orientation: IC50 means the concentration that inhibits the measured activity by half. One may read the AUC as the area under the concentration-time curve, a measure of exposure. A high value points to more exposure. As a reminder, the CL/F is clearance divided by bioavailability, as obtained after extravascular dosing. The term Cmax denotes the highest concentration seen after dosing. By MRT is commonly meant a mean duration of stay, worked out from the concentration-time curve. For orientation: Vd/F means the volume of distribution divided by bioavailability. Broadly, the half-life is how long it takes for the measured level to halve. Read a high half-life as slow decline.
